Source: patent publication US20120283216A1, “FUNGICIDAL 2-(BICYCLIC ARYLOXY)CARBOXAMIDES” (priority 2009, published 2012)

Legend:
Format in all cases: in vivo
Botrytis cinerea = test: Test C: tomato botrytis, preventive spray on tomato seedlings, visual disease rating; conditions: preventive spray at 40 ppm, rated after 48 h + 3 days; for pest or weed control at 40 ppm: Botrytis cinerea, 120 h, read-out: Test C disease control rating (100 = 100% disease control, 0 = no disease control relative to the controls)
Method in brief: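 Compounds applied at 40 ppm (≈800 g/ha) in acetone/water with surfactant, sprayed to run-off on tomato seedlings. Inoculated next day with B. cinerea spores; 48 h saturated humidity at 20 °C, then 3 days at 27 °C. Visual rating as % disease control versus untreated controls.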

Septoria tritici = test: Test B: wheat leaf blotch, preventive spray on wheat seedlings, visual disease rating; conditions: preventive spray at 40 ppm, rated after 48 h + 19 days; for pest or weed control at 40 ppm: Zymoseptoria tritici, 504 h, read-out: Test B disease control rating (100 = 100% disease control, 0 = no disease control relative to the controls)
Method in brief: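 Visual ratings of percent disease control relative to untreated controls were made 19 days after a 48 h saturated-atmosphere incubation at 20° C. Plants had been spore-inoculated one day after a preventive run-off spray at 40 ppm, equivalent to 800 g/ha.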

[1] = test system: Blumeria graminis f. sp. tritici; test: Test A: wheat powdery mildew, preventive spray on wheat seedlings, visual disease rating; conditions: preventive spray at 40 ppm, rated 8 days after inoculation; for pest or weed control at 40 ppm: Blumeria graminis, 192 h, read-out: Test A disease control rating (100 = 100% disease control, 0 = no disease control relative to the controls)
Method in brief: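 After 8 days in a 20° C. growth chamber, disease was scored visually as % control versus untreated (100 = full control). Plants had received a run-off spray of 40 ppm (≈800 g/ha label rate) in acetone/water plus surfactant, with spore-dust inoculation one day later.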

SMILES	Test C disease control rating (100 = 100% disease control, 0 = no disease control relative to the controls) (Botrytis cinerea)	Test B disease control rating (100 = 100% disease control, 0 = no disease control relative to the controls) (Septoria tritici)	Test A disease control rating (100 = 100% disease control, 0 = no disease control relative to the controls) [1]	pest or weed control at 40 ppm (Botrytis cinerea)	pest or weed control at 40 ppm (Septoria tritici)	pest or weed control at 40 ppm [1]
CCOC(Oc1ccc2ccc(OC)cc2c1)C(=O)NC(C)(C)C#N (stereo not drawn) [Compound 116]	99%	99%	13%	–	–	–
CCOC(Oc1ccc2ccc(OC)cc2c1)C(=O)NC(C)(C)CC (stereo not drawn) [Compound 117]	98%	93%	0%	–	–	–
CCOC(Oc1ccc2ccc(Br)cc2c1)C(=O)NC(C)(C)COC (stereo not drawn) [Compound 118]	97%	97%	0%	–	–	–
CCOc1ccc2ccc(OC(OCC)C(=O)NC(C)(C)COC)cc2c1 (stereo not drawn) [Compound 120]	98%	99%	90%	–	–	–
CCOc1ccc2ccc(OC(OCC)C(=O)NC(C)(C)C)cc2c1 (stereo not drawn) [Compound 121]	–	–	–	99%	100%	29%
C#CC(C)(C)NC(=O)C(OCC)Oc1ccc2ccc(OCC)cc2c1 (stereo not drawn) [Compound 122]	98%	100%	0%	–	–	–
CCOc1ccc2ccc(OC(OCC)C(=O)NC(C)(C)C#N)cc2c1 (stereo not drawn) [Compound 123]	98%	100%	82%	–	–	–
CCCOc1ccc2ccc(OC(OC)C(=O)NC(C)(C)COC)cc2c1 (stereo not drawn) [Compound 124]	99%	100%	98%	–	–	–
CCCOc1ccc2ccc(OC(OC)C(=O)NC(C)(C)C)cc2c1 (stereo not drawn) [Compound 125]	98%	100%	92%	–	–	–
C#CC(C)(C)NC(=O)C(OC)Oc1ccc2ccc(OCCC)cc2c1 (stereo not drawn) [Compound 126]	99%	99%	72%	–	–	–
CCCOc1ccc2ccc(OC(CC)C(=O)NC(C)(C)COC)cc2c1 (stereo not drawn) [Compound 127]	99%	99%	94%	–	–	–
CCCOc1ccc2ccc(OC(CC)C(=O)NC(C)(C)C)cc2c1 (stereo not drawn) [Compound 128]	99%	100%	98%	–	–	–
C#CC(C)(C)NC(=O)C(CC)Oc1ccc2ccc(OCCC)cc2c1 (stereo not drawn) [Compound 129]	99%	99%	96%	–	–	–
C#CCOc1ccc2ccc(OC(OC)C(=O)NC(C)(C)COC)cc2c1 (stereo not drawn) [Compound 130]	100%	98%	21%	–	–	–
C#CCOc1ccc2ccc(OC(OC)C(=O)NC(C)(C)C)cc2c1 (stereo not drawn) [Compound 131]	100%	100%	68%	–	–	–
C#CCOc1ccc2ccc(OC(OC)C(=O)NC(C)(C)C#C)cc2c1 (stereo not drawn) [Compound 132]	100%	99%	13%	–	–	–
C#CCOc1ccc2ccc(OC(CC)C(=O)NC(C)(C)COC)cc2c1 (stereo not drawn) [Compound 133]	100%	99%	74%	–	–	–
C#CCOc1ccc2ccc(OC(CC)C(=O)NC(C)(C)C)cc2c1 (stereo not drawn) [Compound 134]	100%	100%	43%	–	–	–
C#CCOc1ccc2ccc(OC(CC)C(=O)NC(C)(C)C#C)cc2c1 (stereo not drawn) [Compound 135]	99%	98%	0%	–	–	–
CCCOc1ccc2ccc(OC(OC)C(=O)NC(C)(C)CC)cc2c1 (stereo not drawn) [Compound 136]	97%	98%	79%	–	–	–
C#CCOc1ccc2ccc(OC(OC)C(=O)NC(C)(C)CC)cc2c1 (stereo not drawn) [Compound 137]	99%	94%	87%	–	–	–
CCc1ccc2ccc(OC(CC)C(=O)NC(C)(C)COC)cc2c1 (stereo not drawn) [Compound 138, 2-[(7-ethyl-2-naphthalenyl)oxy]-N-(2-methoxy-1,1-dimethylethyl)-butanamide]	–	–	–	100%	83%	99%
CCOCC(C)(C)NC(=O)C(CC)Oc1ccc2ccc(CC)cc2c1 (stereo not drawn) [Compound 139]	96%	47%	97%	–	–	–
C#CC(C)(C)NC(=O)C(CC)Oc1ccc2ccc(CC)cc2c1 (stereo not drawn) [Compound 141]	100%	80%	97%	–	–	–
CC#CC(C)(C)NC(=O)C(CC)Oc1ccc2ccc(CC)cc2c1 (stereo not drawn) [Compound 142]	93%	77%	96%	–	–	–
CCCc1ccc2ccc(OC(CC)C(=O)NC(C)(C)COC)cc2c1 (stereo not drawn) [Compound 143]	99%	100%	98%	–	–	–
C#CC(C)(C)NC(=O)C(CC)Oc1ccc2ccc(CCC)cc2c1 (stereo not drawn) [Compound 144]	98%	93%	99%	–	–	–
